Data on 17 molecules can be found in ChEMBL document CHEMBL1154763, “Antitrypanosomal activity of 1,2-dihydroquinolin-6-ols and their ester derivatives” (J Med Chem, 2010).

Structures are written as SMILES. Calls of active or inactive are those of the source. The rule behind the calls is not given here. Where only a bound is given, the exact number is not on record here.

Data set [1] deals with Trypanosoma brucei brucei. The data set can be described thus: Antitrypanosomal activity against Trypanosoma brucei brucei STIB 795 infected in NMRI mouse African trypanosomiasis model assessed as parasite free mouse survival at 10 mg/kg, ip qd administered for 4 consecutive days from day 3 to 6 postinfection measured up to 30 days. The following applies: STIB795.
Data set [2] has as its system Trypanosoma brucei brucei. The data set can be described thus: Induction of reactive oxygen species generation in Trypanosoma brucei brucei MITat1,2,variant 221 at 10 uM preincubated for 24 hrs by CM-H2DCFDA fluorescence assay.
Data set [3] has as its system Trypanosoma brucei brucei. Description: Induction of reactive oxygen species generation in Trypanosoma brucei brucei MITat1,2,variant 221 at 0.1 uM preincubated for 24 hrs by CM-H2DCFDA fluorescence assay.
Data set [4] relates to Trypanosoma brucei rhodesiense. Description: Antitrypanosomal activity against bloodstream Trypanosoma brucei rhodesiense STIB 900 after 70 hrs by alamar blue assay. The following applies: STIB 900, 70 h. It counts as functional, organism-based. (In general: Resazurin is reduced to fluorescent resorufin, in cell work by metabolically active cells.)
Data set [5] concerns Trypanosoma brucei brucei. Description: Induction of reactive oxygen species generation in Trypanosoma brucei brucei MITat1,2,variant 221 at 1 uM preincubated for 24 hrs by CM-H2DCFDA fluorescence assay.
The subject of data set [6] is L6. The data set can be described thus: Cytotoxicity against rat L6 cells after 70 hrs by alamar blue assay. It counts as cell-based. The following applies: L6, 70 h, read-out: IC50.
Data set [7] is described as follows: Selectivity index, ratio of IC50 for rat L6 cells to IC50 for bloodstream Trypanosoma brucei rhodesiense STIB 900. It counts as toxicity, cell-based. The following applies: read-out: Ratio IC50.
Data set [8] relates to Trypanosoma brucei brucei. Description: Antitrypanosomal activity against Trypanosoma brucei brucei STIB 795 infected in NMRI mouse African trypanosomiasis model assessed as parasite free mouse survival at 50 mg/kg, ip qd administered for 4 consecutive days from day 3 to 6 postinfection measured up to 30 days.
Data set [9] relates to Mus musculus. Description: Toxicity in Trypanosoma brucei STIB795 infected in NMRI mouse African trypanosomiasis model assessed as overt signs of at 50 mg/kg, ip qd administered for 4 consecutive days from day 3 to 6 postinfection measured up to 30 days. The following applies: in vivo, 720 h.
Data set [10] has as its system Trypanosoma brucei brucei. Description: Induction of reactive oxygen species generation in Trypanosoma brucei brucei MITat1,2,variant 221 preincubated for 24 hrs by CM-H2DCFDA fluorescence assay.

With `N=C(N)c1ccc(/N=N/Nc2ccc(C(=N)N)cc2)cc1`, the result in [1] was Active.
For `CC(=O)Oc1ccc2c(c1)N(Cc1ccccc1)C(C)(C)C=C2C`, the outcome in data set [2], in data set [3] and in data set [5] was inactive. Further, the values for the IC50 in data set [4] and in data set [6] were 4400 nM and 71 µM, respectively. Also, the selectivity ratio in data set [7] worked out at 16.
On to `CC(=O)Oc1ccc2c(c1)C(C)=CC(C)(C)N2Cc1ccccc1`, for which the results for the IC50 in data set [4] and in data set [6] were 14 nM and 24 µM, respectively. Moreover, the Survival in data set [8] (route intraperitoneal) was more than 14 days. The Activity entry was “Non-toxic” in data set [9] and “Dose-dependent effect” in data set [10]. In data set [7], the selectivity ratio was determined as 1700.
Consider `CC(=O)Oc1ccc2c(c1)C(C)=CC(C)(C)N2Cc1cccc(C#N)c1`, for which the IC50 (as a rule, the point on the concentration scale where inhibition reaches its midpoint) in [4] worked out at 180 nM; in [6], 31 µM. Moreover, the Survival in [8] (route intraperitoneal) is 9.25 days. Besides, the Activity entry in data set [9] is “Non-toxic”. The selectivity ratio in [7] was 170.
As for `CC(=O)Oc1ccc2c(c1)C(C)=CC(C)(C)N2Cc1ccc(F)cc1`, the figures for the IC50 in [4] and in data set [6] were 41 nM and 29 µM, respectively. Besides, in data set [8] (route intraperitoneal), the Survival turned out to be 8.75 days. For the same molecule, the Activity result in data set [9] is reported as “Non-toxic”. The selectivity ratio in [7] is 710.
For the molecule `CC1=CC(C)(C)N(Cc2ccccc2)c2ccccc21`, the outcome in data set [2], in [3] and in data set [5] was inactive. The results for the IC50 in data set [4] and in [6] were 57000 nM and 110 µM, respectively. Further, the selectivity ratio in data set [7] was determined as 2.
With `COc1cc(OC)cc(C(=O)Oc2ccc3c(c2)C(C)=CC(C)(C)N3)c1`, the IC50 in data set [4] amounted to 54 nM; in data set [6] it was 16 µM. The Survival result in [8] is “inactive”. In addition, in data set [7], the selectivity ratio was found to be 300.
Regarding `CC1=CC(C)(C)N(Cc2ccccc2)c2ccc(OC(=O)c3ccccc3)cc21`, the IC50 in data set [4] was 13 nM; in [6], more than 240 µM. In addition, the selectivity ratio in data set [7] is more than 18000.
The corresponding values for `COc1cc(OC)cc(C(=O)Oc2ccc3c(c2)C(C)=CC(C)(C)N3Cc2ccc(C)cc2)c1` are 33 nM, more than 200 µM and more than 6000.
The corresponding values for `COc1cc(OC)cc(C(=O)Oc2ccc3c(c2)C(C)=CC(C)(C)N3Cc2ccccc2)c1` are 23 nM, 24 µM and 1000.
In the case of `CC1=CC(C)(C)Nc2ccc(OC(=O)c3ccc4c(c3)OCO4)cc21`, the figures for the IC50 in data set [4] and in data set [6] were 300 nM and 29 µM, respectively. For the same molecule, the selectivity ratio in [7] was determined as 99.
For `COc1ccc(CN2c3ccc(O)cc3C(C)=CC2(C)C)cc1`, in that order: 170 nM, 6.2 µM and 37.
As for `CC1=CC(C)(C)Nc2ccc(O)cc21`, the IC50 is 780 nM in [4] and 18 µM in [6]. Moreover, the selectivity ratio in data set [7] came out at 23.
The corresponding values for `O=C(Oc1ccc2ncccc2c1)c1ccc2c(c1)OCO2` are 80000 nM, 40 µM and 0.5.
Consider `CC1=CC(C)(C)N(Cc2cccc(C(F)(F)F)c2)c2ccc(OCc3cccc(C(F)(F)F)c3)cc21`, for which the IC50 in data set [4] was 3600 nM; in data set [6], more than 180 µM. Besides, in data set [7], the selectivity ratio is more than 50.
Regarding `CC1=CC(C)(C)N(Cc2ccc(Cl)cc2)c2ccc(O)cc21`, the IC50 in data set [4] is 61 nM; in data set [6], 7.9 µM. The selectivity ratio in [7] came out at 130.
For `COc1ccc(COc2ccc3c(c2)C(C)=CC(C)(C)N3)cc1`, the figures for the IC50 in data set [4] and in data set [6] were 5200 nM and 77 µM, respectively. Further, the selectivity ratio in data set [7] was 15.
